Source: patent publication US20220153741A1, “HETEROCYCLIC COMPOUNDS AS INHIBITORS OF KRAS G12C” (Guangdong Newopp Biopharmaceuticals Co., Ltd., priority 2019, published 2022)

Key:
[1] = tested on: NCI-H358 (H358, KRAS G12C) cancer cell line; assay: 3D proliferation assay, NCI-H358 (CellTiter-Glo); type: cell-based; conditions: 96-well spheroid plate, 4 days
Experimental: (§1) 3D proliferation assay: NCI-H358 (H358, KRAS G12C) and LS513 (KRAS G12D) cancer cell lines were obtained from ATCC (American Type Culture Collection, VA). Cells were plated in 96-well spheroid plate (CORNING INC, NY)) in RPMI-1640 with 10% FBS. Compounds (11-point dilutions) and DMSO were added to the wells and incubated with cells for 4 days at 37° C. Cell viability was then determined by CellTiter-Glo (Promega, WI). IC50 values of compounds were determined as the concentration of 50% inhibition of cell viability compared to DMSO treated cells (A: IC50<0.1 μM; B: IC50 between 0.1 μM and 1 μM; C: IC50 between 1 μM and 10 μM; D: >10 μM; ND: not determined).

[2] = tested on: LS513 (KRAS G12D) cancer cell line; assay: 3D proliferation assay, LS513 (CellTiter-Glo); type: cell-based; conditions: 96-well spheroid plate, 4 days
Experimental: as §1

Structure (SMILES) | IC50 ([1]; Homo sapiens, NCI-H358, 96 h) | IC50 ([2]; Homo sapiens, LS-513, 96 h) | IC50 [2] | IC50 [1]
C=CC(=O)N1CCN(c2nc(=O)n3c4nc(c(F)cc24)-c2c(F)cccc2NC(=O)CCc2ccnc(C(C)C)c2-3)C[C@@H]1CC#N [Example 3, (S)-2-(1-acryloyl-4-(2^6,3^6-difluoro-1^2-isopropyl-2^2,5-dioxo-2^1,2^2-dihydro-4-aza-2(1,7)-pyrido[2,3-d]pyrimidina-1(3,4)-pyridina-3(1,2)-benzenacycloheptaphane-2^4-yl)piperazin-2-yl)acetonitrile] | 1000 to 10000 nM | – | – | –
C=CC(=O)N1C[C@H](C)N(c2nc(=O)n3c4nc(c(F)cc24)-c2c(F)cccc2NC(=O)CCN(C)c2cccc(C(C)C)c2-3)C[C@H]1C [Example 30, 2^4-((2S,5R)-4-acryloyl-2,5-dimethylpiperazin-1-yl)-2^6,3^6-difluoro-1^6-isopropyl-8-methyl-2^1,2^2-dihydro-4,8-diaza-2(1,7)-pyrido[2,3-d]pyrimidina-1,3(1,2)-dibenzenacyclooctaphane-2^2,5-dione] | < 100 nM | > 10000 nM | – | –
C=CC(=O)N1CCN(c2nc(=O)n3c4nc(c(F)cc24)-c2c(F)cccc2N(C)C(=O)NCCc2ccnc(C(C)C)c2-3)[C@@H](C)C1 [Example 16, (S)-2^4-(4-acryloyl-2-methylpiperazin-1-yl)-2^6,3^6-difluoro-1^2-isopropyl-4-methyl-2^1,2^2-dihydro-4,6-diaza-2(1,7)-pyrido[2,3-d]pyrimidina-1(3,4)-pyridina-3(1,2)-benzenacyclooctaphane-2^2,5-dione] | 1000 to 10000 nM | – | – | –
C=CC(=O)N1C[C@H](C)N(c2nc(=O)n3c4nc(c(F)cc24)-c2c(F)cccc2NCCCNc2cccc(C(C)C)c2-3)C[C@H]1C (single isomer, unassigned) [Example 23A] | < 100 nM | – | > 10000 nM | –
C=CC(=O)N1C[C@H](C)N(c2nc(=O)n3c4nc(c(F)cc24)-c2c(F)cccc2NCCCNc2cccc(C(C)C)c2-3)C[C@H]1C (single isomer, unassigned) [Example 23B] | – | – | 1000 to 10000 nM | 100 to 1000 nM
C=CC(=O)N1CCN(c2nc(=O)n3c4nc(c(F)cc24)-c2c(F)cccc2NC(=O)CCNc2cccc(C(C)C)c2-3)[C@@H](C)C1 [Example 21, (S)-2^4-(4-acryloyl-2-methylpiperazin-1-yl)-2^6,3^6-difluoro-1^6-isopropyl-2^1,2^2-dihydro-4,8-diaza-2(1,7)-pyrido[2,3-d]pyrimidina-1,3(1,2)-dibenzenacyclooctaphane-2^2,5-dione] | < 100 nM | > 10000 nM | – | –
C=CC(=O)N1CCN(c2nc(=O)n3c4nc(c(F)cc24)-c2c(F)cccc2N(C(=O)c2cccnc2)CCCc2ccnc(C(C)C)c2-3)[C@@H](C)C1 [Example 14, (S)-2^4-(4-acryloyl-2-methylpiperazin-1-yl)-2^6,3^6-difluoro-1^2-isopropyl-4-nicotinoyl-2^1,2^2-dihydro-4-aza-2(1,7)-pyrido[2,3-d]pyrimidina-1(3,4)-pyridina-3(1,2)-benzenacycloheptaphan-2^2-one] | 1000 to 10000 nM | – | – | –
C=CC(=O)N1CCN(c2nc(=O)n3c4nc(c(F)cc24)-c2c(F)cccc2N(C(=O)N(C)C)CCCc2ccnc(C(C)C)c2-3)[C@@H](C)C1 [Example 13, (S)-2^4-(4-acryloyl-2-methylpiperazin-1-yl)-2^6,3^6-difluoro-1^2-isopropyl-N,N-dimethyl-2^2-oxo-2^1,2^2-dihydro-4-aza-2(1,7)-pyrido[2,3-d]pyrimidina-1(3,4)-pyridina-3(1,2)-benzenacycloheptaphane-4-carboxamide] | 100 to 1000 nM | – | – | –
C=CC(=O)N1CCN(c2nc(=O)n3c4nc(c(F)cc24)-c2c(F)cccc2NC(=O)NCCc2ccnc(C(C)C)c2-3)[C@@H](C)C1 [Example 5, (S)-2^4-(4-acryloyl-2-methylpiperazin-1-yl)-2^6,3^6-difluoro-1^2-isopropyl-2^1,2^2-dihydro-4,6-diaza-2(1,7)-pyrido[2,3-d]pyrimidina-1(3,4)-pyridina-3(1,2)-benzenacyclooctaphane-2^2,5-dione] | 100 to 1000 nM | – | – | –
C=CC(=O)N1C[C@H](C)N(c2nc(=O)n3c4nc(c(F)cc24)-c2c(F)cccc2NC(=O)CNc2cccc(C(C)C)c2-3)C[C@H]1C [Example 26, 2^4-((2S,5R)-4-acryloyl-2,5-dimethylpiperazin-1-yl)-2^6,3^6-difluoro-1^6-isopropyl-2^1,2^2-dihydro-4,7-diaza-2(1,7)-pyrido[2,3-d]pyrimidina-1,3(1,2)-dibenzenacycloheptaphane-2^2,5-dione] | < 100 nM | > 10000 nM | – | –
C=CC(=O)N1CCN(c2nc(=O)n3c4nc(c(F)cc24)-c2c(F)cccc2NCCCc2ccnc(C(C)C)c2-3)[C@@H](C)C1 [Example 2, (S)-2^4-(4-acryloyl-2-methylpiperazin-1-yl)-2^6,3^6-difluoro-1^2-isopropyl-2^1,2^2-dihydro-4-aza-2(1,7)-pyrido[2,3-d]pyrimidina-1(3,4)-pyridina-3(1,2)-benzenacycloheptaphan-2^2-one] | < 100 nM | > 10000 nM | – | –
C=CC(=O)N1CCN(c2nc(=O)n3c4nc(c(F)cc24)-c2c(F)cccc2NC(=O)CCc2cccc(C(C)C)c2-3)[C@@H](C)C1 [Example 18, (S)-2^4-(4-acryloyl-2-methylpiperazin-1-yl)-2^6,3^6-difluoro-1^6-isopropyl-2^1,2^2-dihydro-4-aza-2(1,7)-pyrido[2,3-d]pyrimidina-1,3(1,2)-dibenzenacycloheptaphane-2^2,5-dione] | 100 to 1000 nM | > 10000 nM | – | –
C=C(F)C(=O)N1C[C@H](C)N(c2nc(=O)n3c4nc(c(F)cc24)-c2c(F)cccc2NCCCc2ccnc(C(C)C)c2-3)C[C@H]1C (single isomer, unassigned) [Example 6A] | – | – | – | > 10000 nM
C=C(F)C(=O)N1CCN(c2nc(=O)n3c4nc(c(F)cc24)-c2c(F)cccc2NCCCc2ccnc(C(C)C)c2-3)[C@@H](C)C1 [Example 11, (S)-2^6,3^6-difluoro-2^4-(4-(2-fluoroacryloyl)-2-methylpiperazin-1-yl)-1^2-isopropyl-2^1,2^2-dihydro-4-aza-2(1,7)-pyrido[2,3-d]pyrimidina-1(3,4)-pyridina-3(1,2)-benzenacycloheptaphan-2^2-one] | 100 to 1000 nM | > 10000 nM | – | –
C=CC(=O)N1CCN(c2nc(=O)n3c4nc(c(F)cc24)-c2c(F)cccc2NC(=O)CCN(C)c2cccc(C(C)C)c2-3)C(C)C1 [Example 29, (S)-2^4-(4-acryloyl-2-methylpiperazin-1-yl)-2^6,3^6-difluoro-1^6-isopropyl-8-methyl-2^1,2^2-dihydro-4,8-diaza-2(1,7)-pyrido[2,3-d]pyrimidina-1,3(1,2)-dibenzenacyclooctaphane-2^2,5-dione] | – | – | > 10000 nM | < 100 nM
C=CC(=O)N1CCN(c2nc(=O)n3c4nc(c(F)cc24)-c2c(F)cccc2NC(=O)CNc2cccc(C(C)C)c2-3)[C@@H](C)C1 [Example 25, (S)-2^4-(4-acryloyl-2-methylpiperazin-1-yl)-2^6,3^6-difluoro-1^6-isopropyl-2^1,2^2-dihydro-4,7-diaza-2(1,7)-pyrido[2,3-d]pyrimidina-1,3(1,2)-dibenzenacycloheptaphane-2^2,5-dione] | < 100 nM | > 10000 nM | – | –
C=CC(=O)N1C[C@H](C)N(c2nc(=O)n3c4nc(c(F)cc24)-c2c(F)cccc2NC(=O)CCNc2cccc(C(C)C)c2-3)C[C@H]1C [Example 24A, 2^4-((2S,5R)-4-acryloyl-2,5-dimethylpiperazin-1-yl)-2^6,3^6-difluoro-1^6-isopropyl-2^1,2^2-dihydro-4,8-diaza-2(1,7)-pyrido[2,3-d]pyrimidina-1,3(1,2)-dibenzenacyclooctaphane-2^2,5-dione] | < 100 nM | > 10000 nM | – | –
C=C(F)C(=O)N1C[C@H](C)N(c2nc(=O)n3c4nc(c(F)cc24)-c2c(F)cccc2NCCCc2ccnc(C(C)C)c2-3)C[C@H]1C (single isomer, unassigned) [Example 6B] | – | > 10000 nM | – | 100 to 1000 nM
C=CC(=O)N1CCN(c2nc(=O)n3c4nc(c(F)cc24)-c2c(F)cccc2N(C(C)=O)CCCc2ccnc(C(C)C)c2-3)[C@@H](C)C1 [Example 12, (S)-4-acetyl-2^4-(4-acryloyl-2-methylpiperazin-1-yl)-2^6,3^6-difluoro-1^2-isopropyl-2^1,2^2-dihydro-4-aza-2(1,7)-pyrido[2,3-d]pyrimidina-1(3,4)-pyridina-3(1,2)-benzenacycloheptaphan-2^2-one] | 100 to 1000 nM | > 10000 nM | – | –
